Laboratory results from patent US20250295690A1, “ORAL FORMULATION BASED ON A PRE-ESTABLISHED ASSOCIATION OF SULODEXIDE AND FLAVONOIDS FOR THE TREATMENT OF CHRONIC VENOUS INSUFFICIENCY AND PREVENTION OF COMPLICATIONS THEREOF” (priority 2021, published 2025).

Legend:
[1] = test system: human micro-vascular endothelial cells (HMVEC); assay: In vitro vascular permeability assay on a VEGF-treated HMVEC monolayer (FITC-dextran); assay type: cell-based; conditions: HMVEC line, 50 ng/ml, 8 hours
Method: (§1) The direct effect on the vasal permeability of three compositions comprising Sulodexide+flavonoids was evaluated in vitro:
(§2) All tested compositions (i)-(iii) comprise a concentration of sulodexide equal to 0.25% and a concentration of diosmin, hesperidin or troxerutin, respectively, equal to 4.5% by weight with respect to the total weight of the composition.
(§3) The action of the compositions (i)-(iii) was compared with the action of the active principles Diosmin, Hesperidin, Troxerutin, 8% by weight, and glucosaminoglycan Sulodexide, 0.5% by weight, administered singularly.
(§4) The direct effect on the vasal permeability was evaluated by using endothelial cellular cultures miming the continuous mono-layer of the endothelium of the human vessels. Two cellular models were used: the human micro-vascular endothelial cells (HMVEC) to simulate the vessels of the microcirculation, and the human umbilical vein endothelial cells (HUVEC) to study the vasal endothelium. The cells of the lines HMVEC and HUVEC (3×10^5) were incubated for 72 hours at 37° C. on supports of semi-permeable membrane with pores having 1-μm diameter so as to form a continuous mono-layer wholly impermeable to the substance used as control, the fluorescein isothiocyanate (FITC) dextran. The vasal permeability was evaluated with the kit “The Millipore® In Vitro Vascular Permeability Assay”. […]

[2] = test system: human umbilical vein endothelial cells (HUVEC); assay: In vitro vascular permeability assay on a VEGF-treated HUVEC monolayer (FITC-dextran); assay type: cell-based; conditions: 50 ng/ml, 8 hours
Method: as §1, §2, §3, §4

VEGF
increase in permeability [1]: 36% | increase in permeability [2]: 42%
